We go through 19 molecules from patent US9688702B2, “Alpha-amino boronic acid derivatives, selective immunoproteasome inhibitors” (Ares Trading S.A, priority 2011, dated 2017).

The target in test [1] is LMP7 (purified human immuno proteasome) (Homo sapiens, UniProt P28062). The test is described as follows: Determination of LMP7 activity (fluorescence intensity assay, Suc-LLVY-AMC). The following applies: for IC50: purified human immuno proteasome 0.5 nM, 40 μM Suc-LLVY-AMC, 37° C. It is filed as biochemical. A digest of the protocol:
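Purified human immunoproteasome (0.5 nM or 0.25 nM) preincubated 30 min at 37 °C with compounds (10 μM to 38 pM) in 50 mM Tris pH 7.4, 0.03% SDS. Suc-LLVY-AMC added at 40 μM; after 90 min at 37 °C, fluorescence read at ex 350/em 450 nm.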

The target in test [2] is Beta5 (purified human constitutive proteasome) (Homo sapiens, UniProt P28074). The test is described as follows: Determination of Beta5 activity (fluorescence intensity assay, Suc-LLVY-AMC). It is filed as biochemical. The conditions noted are these: purified human constitutive proteasome 1.0 nM, 40 μM Suc-LLVY-AMC, 37° C. An outline of the steps:
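Purified human constitutive proteasome (1.0 nM) was preincubated 30 min at 37 °C with compounds (10 μM to 38 pM) in 50 mM Tris pH 7.4, 0.03% SDS. Suc-LLVY-AMC (40 μM) was then added and fluorescence (ex 350/em 450 nm) read after 90 min at 37 °C.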

As for `COc1ccc(C(=O)C[C@@H](Cc2ccccc2)C(=O)N[C@@H](Cc2ccsc2)B(O)O)cc1` (single isomer, unassigned) [Example 25], in test [1], the “Selectivity LMP7 vs Beta5” value is recorded as “+++ (+++: Selectivity > 30)” and the IC50 fell in the range of 50 to 500 nM. The molecule further displayed a concentration for half-maximal inhibition (IC50) in test [2] above 5000 nM.
On to `CCc1cccc(C[C@H](NC(=O)CCn2c(C)nc3ccccc32)B(O)O)c1` [Example 54, (R)-(2-(3-ethylphenyl)-1-(3-(2-methyl-1H-benzo[d]imidazol-1-yl)propanamido)ethyl)boronic acid], for which, in test [1], the “Selectivity LMP7 vs Beta5” value is listed as “++ (++: 10 < Selectivity < 30)” and the IC50 is below 50 nM. In test [2], the half-maximal inhibitory concentration (IC50) is 50 to 500 nM.
On the same counts, the results for `O=C(CCn1c(=O)sc2ccccc21)N[C@@H](Cc1ccsc1)B(O)O` [Example 34, [(1R)-1-{[3-(2-oxo-1,3-benzothiazol-3(2H)-yl)propanoyl]amino}-2-(3-thienyl)ethyl]boronic acid] are “+ (+: Selectivity < 10)”, below 50 nM and 50 to 500 nM.
Taken in the same sequence, the figures for `COc1ccc(C[C@H](NC(=O)CCc2noc(-c3ccccc3)n2)B(O)O)cc1C(F)(F)F` [Example 56, (R)-(2-(4-methoxy-3-(trifluoromethyl)phenyl)-1-(3-(5-phenyl-1,2,4-oxadiazol-3-yl)propanamido)ethyl)boronic acid] were “++ (++: 10 < Selectivity < 30)”, 50 to 500 nM and 500 to 5000 nM.
For `CCc1cccc(C[C@H](NC(=O)[C@H](CC(=O)c2ccccc2)c2cccc(Cl)c2)B(O)O)c1` (single isomer, unassigned) [Example 14], the “Selectivity LMP7 vs Beta5” value in test [1] is “+++ (+++: Selectivity > 30)”. For the same molecule, the IC50 lay in the range of 50 to 500 nM in test [1] and 500 to 5000 nM in test [2].
Taken in the same sequence, the figures for `O=C(CCC(=O)c1ccc(-c2ccccc2)cc1)N[C@@H](Cc1ccsc1)B(O)O` [Example 20, [(1R)-1-[(4-biphenyl-4-yl-4-oxobutanoyl)amino]-2-(3-thienyl)ethyl]boronic acid] were “+ (+: Selectivity < 10)”, 50 to 500 nM and 500 to 5000 nM.
`O=C(CCn1cc(-c2ccccc2)nn1)N[C@@H](Cc1csc2ccccc12)B(O)O` [Example 104, (R)-(2-(benzo[b]thiophen-3-yl)-1-(3-(4-phenyl-1H-1,2,3-triazol-1-yl)propanamido)ethyl)boronic acid]: in test [1], the “Selectivity LMP7 vs Beta5” value is recorded as “+ (+: Selectivity < 10)” and the concentration for half-maximal inhibition (IC50) is below 50 nM. This molecule yielded a concentration for half-maximal inhibition (IC50) in test [2] below 50 nM.
Turning to `COc1ccc(C(=O)CC(Cc2ccccc2)C(=O)N[C@@H](Cc2cc(F)cc(OC)c2)B(O)O)cc1` (stereo partly drawn) [Example 49, ((1R)-1-(2-benzyl-4-(4-methoxyphenyl)-4-oxobutanamido)-2-(3-fluoro-5-methoxyphenyl)ethyl)boronic acid], in test [1], the “Selectivity LMP7 vs Beta5” value is reported as “++ (++: 10 < Selectivity < 30)” and the half-inhibitory concentration (IC50) is below 50 nM. This molecule also returned an IC50 in test [2] of 50 to 500 nM.
Taken in the same sequence, the figures for `O=C(N[C@@H](Cc1ccsc1)B(O)O)[C@H](Cc1ccccc1)Cc1cn(-c2ccccc2)nn1` [Example 62, ((R)-1-((R)-2-benzyl-3-(1-phenyl-1H-1,2,3-triazol-4-yl)propanamido)-2-(thiophen-3-yl)ethyl)boronic acid] were “++ (++: 10 < Selectivity < 30)”, below 50 nM and 50 to 500 nM.
Taken in the same sequence, the figures for `COc1ccc(C(=O)CCC(=O)N[C@@H](Cc2cccc(C(F)(F)F)c2)B(O)O)cc1` [Example 26, {(1R)-1-{[4-(4-methoxyphenyl)-4-oxobutanoyl]amino}-2-[3-(trifluoromethyl)phenyl]ethyl}boronic acid] were “+++ (+++: Selectivity > 30)”, 50 to 500 nM and above 5000 nM.
For `O=C(CCc1cn(-c2ccccc2)nn1)N[C@@H](Cc1ccc2ccccc2c1)B(O)O` [Example 98, (R)-(2-(naphthalen-2-yl)-1-(3-(1-phenyl-1H-1,2,3-triazol-4-yl)propanamido)ethyl)boronic acid], in test [1], the “Selectivity LMP7 vs Beta5” value is listed as “++ (++: 10 < Selectivity < 30)” and the IC50 is below 50 nM. In test [2], this molecule displayed an IC50 of 50 to 500 nM.
On to `COc1ccccc1C(=O)CCC(=O)N[C@@H](Cc1ccsc1)B(O)O` [Example 12, [(1R)-1-{[4-(2-methoxyphenyl)-4-oxobutanoyl]amino}-2-(3-thienyl)ethyl]boronic acid], for which the results for the IC50 in test [1] and in test [2] were 500 to 5000 nM and above 5000 nM, respectively.
On to `CCc1cccc(C[C@H](NC(=O)CCn2cnc3ccccc32)B(O)O)c1` [Example 29, [(1R)-1-{[3-(1H-benzimidazol-1-yl)propanoyl]amino}-2-(3-ethylphenyl)ethyl]boronic acid], for which the “Selectivity LMP7 vs Beta5” value in test [1] is “++ (++: 10 < Selectivity < 30)”. Moreover, the half-inhibitory concentration (IC50) in test [1] is below 50 nM; in test [2] it was 50 to 500 nM.
On the same counts, the results for `Cn1ncc2cc(C[C@H](NC(=O)CCn3c(=O)sc4ccccc43)B(O)O)ccc21` [Example 102, (R)-(2-(1-methyl-1H-indazol-5-yl)-1-(3-(2-oxobenzo[d]thiazol-3(2H)-yl)propanamido)ethyl)boronic acid] are “++ (++: 10 < Selectivity < 30)”, below 50 nM and below 50 nM.
On the same counts, the results for `O=C(CCc1cn(-c2cccnc2)nn1)N[C@@H](Cc1ccc2ccccc2c1)B(O)O` [Example 99, (R)-(2-(naphthalen-2-yl)-1-(3-(1-(pyridin-3-yl)-1H-1,2,3-triazol-4-yl)propanamido)ethyl)boronic acid] are “+++ (+++: Selectivity > 30)”, below 50 nM and 500 to 5000 nM.
On the same counts, the results for `COc1ccc(C(=O)CC(Cc2ccccc2)C(=O)N[C@@H](Cc2ccc(OC(F)(F)F)cc2)B(O)O)cc1` (stereo partly drawn) [Example 44, ((1R)-1-(2-benzyl-4-(4-methoxyphenyl)-4-oxobutanamido)-2-(4-(trifluoromethoxy)phenyl)ethyl)boronic acid] are “++ (++: 10 < Selectivity < 30)”, below 50 nM and 50 to 500 nM.
For the molecule `Cc1nc2ccccc2n1CCC(=O)N[C@@H](Cc1ccsc1)B(O)O` [Example 55, (R)-(1-(3-(2-methyl-1H-benzo[d]imidazol-1-yl)propanamido)-2-(thiophen-3-yl)ethyl)boronic acid], in test [1], the “Selectivity LMP7 vs Beta5” value is reported as “+ (+: Selectivity < 10)” and the half-inhibitory concentration (IC50) was below 50 nM. In test [2], this molecule yielded a half-maximal inhibitory concentration (IC50) of 50 to 500 nM.
For the molecule `O=C(CCn1cnc2ccccc21)N[C@@H](Cc1csc2ccccc12)B(O)O` [Example 106, (R)-(1-(3-(1H-benzo[d]imidazol-1-yl)propanamido)-2-(benzo[b]thiophen-3-yl)ethyl)boronic acid], in test [1], the “Selectivity LMP7 vs Beta5” value was “++ (++: 10 < Selectivity < 30)” and the IC50 is below 50 nM. Further, the IC50 in test [2] is below 50 nM.
As to `COc1cc(F)cc(C[C@H](NC(=O)CCn2cnc3ccccc32)B(O)O)c1` [Example 57, (R)-(1-(3-(1H-benzo[d]imidazol-1-yl)propanamido)-2-(3-fluoro-5-methoxyphenyl)ethyl)boronic acid], in test [1], the “Selectivity LMP7 vs Beta5” value is on record as “++ (++: 10 < Selectivity < 30)” and the IC50 was below 50 nM. For the same molecule, the IC50 in test [2] lay within 50 to 500 nM.
